One molecule from patent US10258980B2, “Pure chelation process” (C LAB PHARMA INTERNATIONAL, S.A., priority 2014, dated 2019) can be followed below.

The conditions of data set [1]: dry powder rubbed on the surface of skin.
For data set [2] the following is noted: equal amounts of chelated copper mixed with water.

In the case of `O=C(O)c1cccnc1.[Cu]` [copper nicotinic acid], the “copper content by EDS, dry powder form” value (dry powder) came to 22.90%. Also, where the note is “wet sample”, the “copper content by EDS after sample is wetted” value was 21.7%. Besides, the “change of EDS spectra after wetting” value (wet versus dry sample) is reported as “did not change significantly”. Also, in data set [1], the “disappearance from the surface of skin when rubbed, dry powder” value is given as “disappeared from the surface of the skin”. Further, in data set [2], the “time to change to the oxidized blue color” value was “a few minutes”.
